One series relates to HCV. The following applies: cited from earlier work.
For series [1], the system named is HCV replicon cells (2209-23), genotype 1b replicon in human hepatoma Huh7 cells. The series can be described thus: HCV replicon assay (Renilla luciferase reporter). In kind it is cell-based, HCV genotype 1b. To be noted: Hepatitis C virus, Huh-7, 72 h; 2209-23 cells, three days incubation.
The next series in a line: in vitro. The following applies: human.
Series [2] concerns the target T1, HCV polymerase (NS5B570n-Con1) (Hepatitis C virus genotype 1b, UniProt Q9WMX2).
T1 construct: a 21 amino acid C-terminal deletion of full-length HCV polymerase; made in house; host or cells: E. coli BL21(DE3) pLysS, plasmid pET17b
The series can be described thus: biochemical. Also on record: species or system HCV Con1 strain.

Each structure is given as a SMILES string.

Take `NC(=O)c1ncn([C@@H]2O[C@H](CO)[C@@H](O)[C@H]2O)n1` [ribavirin, 1-((2R,3R,4S,5R)-3,4-Dihydroxy-5-hydroxymethyl-tetrahydro-furan-2-yl)-1H-[1,2,4]triazole-3-carboxylic acid amide]: the “serum levels of HCV-RNA” value with HCV (monotherapy / sole treatment) is “does not lower”. Further, in the series on HCV (monotherapy), the “patients in whom serum amino transferase levels are reduced to normal” value is listed as 40%.

As for `CC(C)(C)c1cc(-c2ccc[nH]c2=O)cc2c(-c3cccc(C(N)=O)c3)coc12` [Compound I-78, 3-[7-tert-Butyl-5-(2-oxo-1,2-dihydro-pyridin-3-yl)-benzofuran-3-yl]-benzamide], the melting point lay within 190 to 193 °C. The same molecule had an IC50 in series [1] of 78 nM. The molecule also displayed a CC50 in “in vitro” of 12400 nM. It took 9 nM to reach half-maximal inhibition in series [2] (IC50).

Regarding `CC(C)(C)c1cc(-c2ccc[nH]c2=O)cc2c(C(=O)N3CCC[C@H](CNS(C)(=O)=O)C3)coc12` [Compound I-100], the results for the half-maximal inhibitory concentration (IC50) in series [1] and in series [2] were 14 nM and 8 nM, respectively.

`CC(C)(C)c1cc(-c2ccc[nH]c2=O)cc2c(-c3ccc(N)cc3)coc12` [Compound I-86] had a melting point of 248 to 250 °C. Moreover, the IC50 in series [1] amounted to 346 nM. The same molecule gave a CC50 in “in vitro” of 29200 nM.

The molecule `CC(C)(C)c1cc(-c2ccc[nH]c2=O)cc2c(-c3ccc(CN(CCO)S(C)(=O)=O)cc3)coc12` [Compound I-76, N-{4-[7-tert-Butyl-5-(2-oxo-1,2-dihydro-pyridin-3-yl)-benzofuran-3-yl]-benzyl}-N-(2-hydroxy-ethyl)-methanesulfonamide] registered a melting point of 222 to 224 °C. The same molecule displayed a half-inhibitory concentration (IC50) in series [2] of 35 nM.

These data come from patent US8067442B2, “Heterocyclic antiviral compounds” (Roche Palo Alto LLC, priority 2008, dated 2011).
